In assay [1] the test system is Jurkat cells. Kind of assay: DNA fragmentation (DNA laddering) in Jurkat cells. As to conditions: LAC 6 μM. It is filed as cell-based. The procedure: Tonsillar T cells (A, B, and D) and Jurkat cells (C and E) were treated with LAC (10 μM for T cells and 6 μM for Jurkat cells). LAC was added at the beginning of the culture or 40 h after T cell activation as indicated. The cells were harvested at the time points as shown. They were evaluated for their viability with trypan blue exclusion (A, B, and C), and for their mode of cell death according to DNA fragmentation (D and E).
Jurkat cells were treated with LAC (6 μM) in the absence or presence of different concentrations of zVAD.fms (0.4 μM to 33.3 μM) for 6 h. The cells were harvested and their DNA was analyzed by a DNA fragmentation assay according to DNA laddering.
We next employed DNA laddering to study the mode of cell death caused by LAC, and the result of this experiment also reflected the degree of cell death after different treatments. […] After 24 h of LAC treatment, the ladders became less discrete, and this probably reflected further DNA breakdown.
The assay was performed according to a protocol described by Liu et al (Liu et al., 1997, Cell. 89:175) with some modifications. Briefly, 2-6 million cells were re-suspended in 50 μl PBS followed by 300 μl lysis buffer (100 mM Tris-HCl, pH 8.0, 5 mM EDTA, 0.2 M NaCl. 0.2% w/v SDS, and 0.2 mg/ml proteinase K). After overnight incubation at 37° C., 350 μl of 3M NaCl was added to the mixture and cell debris was removed by centrifugation at 13000 g for 20 min at room temperature. DNA in the supernatant was precipitated with an equal volume of 100% ethanol. The pellet was washed with cold 70% ethanol and then dissolved in 20 μl of TE containing 0.2 mg/ml RNase A. After incubation at 37° C. for 2 h, the DNA was resolved on 2% agarose gel and visualized with ethidium bromide staining.

In assay [2] the test system is Peripheral blood T cells. Kind of assay: S phase entry of mitogen-stimulated peripheral blood T cells (flow cytometry). In kind it is cell-based, human. As to conditions: PHA; for cell death: evaluated at 40 h, data not shown. The procedure: C and D. LAC blocks the S phase entry of the mitogen-stimulated peripheral blood T cells Peripheral blood T cells were stimulated with PHA (2 μ/ml) in the absence or presence of LAC (10 μM, added at 0 h, 16 h, 24 h, or 40 h, as indicated in the bottom of the panels). For the flow cytometry analysis of the cell cycle progress, the cells were harvested at 0 h, 1 6 h, 40 h and 64 h as indicated on the top of the panels (FIG. 6C). For ^3H-thymidine uptake, the triplicated cell samples were pulsed at 48 h and harvested at 64 h (FIG. 6D).
T cells from PBMC were at Go when isolated. After 16 h stimulation with PHA, they remained before the S phase (FIG. 6C). At 40 h, about 20% of the cells were in the S and G2/M phases. The peak of ^3H-thymidine uptake according to a 16 h pulse was between 48 h and 64 h (data not shown), although at 64 h, the cells in the S and G2/M phases were still about 20% (FIG. 6C). The lack of an increase in percentage of cells in the S and G2/M phases at 64 h compared with that at 40 h was likely due to the exit of the cells from the S and G2/M phase. It is to be noted that the cycling T cells in this system never reaches 100%, because about 15% of the cells were non T cells, and an additional 20% were non responsive T cells. Taken the cell proliferation and cell cycle analysis together, the G1/S boundary of the cycling T cells should be between about 35 h and 48 h after the PHA stimulation. The boundary was broad because the synchronization was not ideal.
In this model, the role of the proteasome in the S phase entry was examined. […] We have noticed that when the cell viability was evaluated at 40 h, there was an increase of cell death comparing the 16 h addition of LAC with the 0 h addition (about 25% vs about 17%, data not shown). The increased cell death was also reflected in the cells with <2N DNA in the 40 h histogram. However, such a viability was still reasonable and would not invalidate our conclusion. […] The discrepancy could be explained by the fact that the 20% cells were already in the S and G2/M phases at 40 h when LAC was added. LAC prevented additional cells from entering into the S phase, therefore the lack ^3H-thymidine uptake.
Flow cytometry was employed for cell cycle analysis for T cells and Jurkat cells as described before (Shan et al., 1994, supra) using propidium iodide staining.

Assay [3] deals with Cyclin E-associated CDK. Kind of assay: Immunoprecipitation kinase assay, Cyclin E-associated CDK. In kind it is cell-based, human. To be noted: PHA-activated T cells; LAC 10 μM added once at 0 h. The procedure: Tonsillar T cells were activated with PHA (2 μg/ml) for a period as indicated in each graph. LAC (10 μM) was added once at 0 h. The cells were harvested at 16 h, 24 h, or 40 h as indicated. An equal amount of lysate protein ([…]) was precipitated with rabbit anti-CDK4, anti-CDK2 or anti-Cyclin E antisera (2.5 μg Ab/sample). The immune complexes were assayed for their kinase activities using histone H1 as a substrate. (A) CDK4 kinase activity. (B) CDK2 kinase activity. (C) Cyclin E-associated CDK activity. The membrane in (C) was subsequently hybridized with anti-Cyclin E (1 μg/ml) followed by ^125I-protein A for the evaluation of the protein level of Cyclin E.
Since at the late G1 phase Cyclin E is the predominant partner of CDK2 (Sherr, 1993, Cell 73:1059), we next examined the Cyclin E-associated CDK activity.
Lymphocytes were lysed by a lysis buffer as used in the immunoblotting (Chen et al., 1996, supra), and cleared lysates were quantitated for their protein content. For immunoprecipitation, 50 μl of rabbit antisera against CDK2, CDK4 or Cyclin E were added to the lysates equivalent to 20 or 40 μg protein depending on the experiment. […] The proteins were then transferred to PVDF membranes and the signals were detected by autoradiography.

The structures appear in SMILES notation.

Turning to `CC(=O)N[C@@H](CSC(=O)[C@]1([C@@H](O)C(C)C)NC(=O)[C@H](C)[C@@H]1O)C(=O)O` [LAC, lactacystin], the “onset of DNA fragmentation” value in assay [1] is “detected as early as 6 h”. In addition, the DNA fragmentation entry in assay [1] (after 16 h) is “more prominent”. In assay [2] (LAC 10 μM added once at 16 h, examined at 40 h), the S phase entry entry is on record as “totally block the S phase entry”. The cell death entry in assay [2] (LAC added at 0 h) is on record as “about 17%”; in assay [2] (LAC added at 16 h), “about 25%”. For the same compound, in assay [2] (LAC added at 40 h or not, at 64 h), the “percentage of the population in the S and G2/M phase” value is given as “no difference”. In assay [3], the “Cyclin E-associated kinase activity” value is “almost completely inhibited”.
